Laboratory results from US10351587B2, “Method of making and using 7α, 11β-dimethyl-17β-hydroxyestr-4-en-3-one 17-undecanoate” (The United States of America, as represented by the …, priority 2000, dated 2019).
“Also recorded” adds a separate entry of the source.

Legend:
[1] = test system: castrate Sprague-Dawley rats; assay: Duration of activity after a single subcutaneous injection (ventral prostate weight over weeks, AUC); type: in vivo; details: for Long-term androgenic activity (ventral prostate weight over time), in words / AUC of ventral prostate weight (FIG. 5) / AUC of ventral prostate weight (FIG. 15): single subcutaneous injection; for AUC of ventral prostate weight (FIG. 5) / AUC of ventral prostate weight (FIG. 15): 0.6 mg; for AUC of ventral prostate weight (FIG. 5): n=5
Protocol: Immature (about 21-day-old) Sprague-Dawley rats were orchidectomized under anesthesia, and randomly assignee to groups of ten animals for each dose level of the active undergoing testing. Each active was administered by subcutaneous injection each day for seven days beginning on the date of the orchidectomy. The animals were sacrificed 24 hours after the last dose, and the ventral prostate and seminal vesicles were excised, cleaned of fat and connective tissue, blotted on moist filter paper and weighed to the nearest 0.1 mg. Regression analysis was performed by conventional methods using a PROPHET data management system. Ventral prostate weight was used as the endpoint because it is the sensitive organ to androgenic stimulation.
Except for testosterone enanthate, each active was formulated in two different carriers: (1) an aqueous suspension and (2) in sesame oil. Testosterone enanthate was formulated using the sesame oil carrier only, because it exists as a liquid at room temperature and could not therefore be formulated as an aqueous suspension.
The carrier used to provide the aqueous suspension was formulated as follows: 1 g benzyl alcohol, 0.5 g sodium carboxylethyl cellulose 50, 0.376 g disodium hydrogen phosphate dihydrate, 1.495 g sodium dihydrogen phosphate dihydrate, with water for injection (WFI) being added to bring volume of the carrier up to 100 ml.
Each formulation was prepared at a concentration of 0.6 mg/0.2 ml.
(§1) Immature (about 21-day-old) Sprague-Dawley rats were orchidectomized under anesthesia, and randomly assignee to groups of 40 or more. Animals received a single subcutaneous injection of 0.6 mg of each ester in 0.2 ml of an aqueous suspending carrier and/or oily carrier (10% ethanol/90% sesame oil or ethyl oleate) on the date of the orchidectomy. In cases where the ester was not solid at room temperature, 10% ethanol/sesame oil or ethyl oleate was used as the carrier. In this example, the carrier used to provide the aqueous suspension was formulated as follows: 1 g benzyl alcohol, 0.5 g sodium carboxylethyl cellulose 50, 0.376 g disodium hydrogen phosphate dihydrate, 1.495 g sodium dihydrogen phosphate dihydrate, with water for injection (WFI) being added to bring volume of the carrier up to 100 ml.
Five animals from each group were sacrificed at weekly or biweekly intervals, and the ventral prostate and seminal vesicles were excised, cleaned of fat and connective tissue, blotted on moist filter paper and weighed to the nearest 0.1 mg.
Ventral prostate weight was used as the endpoint because it is the sensitive organ to androgenic stimulation. Regression analysis was performed by conventional methods using the PROPHET data management system previously identified.
Immature (about 21-day-old) Sprague-Dawley rats were orchidectomized under anesthesia, and randomly assignee to groups of 40 or more. Animals received a single subcutaneous injection of 0.6 mg of the undecanoate in 0.2 ml of an aqueous suspending carrier and/or oily carrier (10% ethanol/90% sesame oil containing 5 mg/ml chlorobutanol as a preservative, or ethyloleate) on the date of the orchidectomy. The enanthate ester was formulated using the 10% ethanol/sesame oil or ethyloleate carrier as a first standard, with the 10% ethanol/sesame oil carrier used as a second standard.
In this example, the carrier used to provide the aqueous suspension was formulated as follows: 1 g benzyl alcohol, 0.5 g sodium carboxylethyl cellulose 50, 0.376 g disodium hydrogen phosphate dihydrate, 1.495 g sodium dihydrogen phosphate dihydrate, with water for injection (WFI) being added to bring volume of the carrier up to 100 ml.

[2] = test system: castrate Sprague-Dawley rats; assay: Hershberger test, subcutaneous administration for seven days (ventral prostate weight); type: in vivo
Protocol: (§2) Immature (about 21-day-old) Sprague-Dawley rats were orchidectomized under anesthesia, and randomly assignee to groups of ten animals for each dose level of the active undergoing testing. Each active was dissolved in 10% ethanol/sesame oil and administered by gavage (oral) or subcutaneous injection each day for seven days beginning on the date of the orchidectomy. The animals were sacrificed 24 hours after the last dose, and the ventral prostate and seminal vesicles were excised, cleaned of fat and connective tissue, blotted on moist filter paper and weighed to the nearest 0.1 mg. Regression analysis was performed by conventional methods using a PROPHET data management system. Ventral prostate weight was used as the endpoint because it is the sensitive organ to androgenic stimulation.
as §2, with “by” for “by gavage (oral) or”, “mg. See, e.g., Hershberger, L. et al, Myotrophic Activity of 19-nortestosterone And Other Steroids Determined By Modified Levator And Muscle Method, Proc. Soc. Exptl. Biol. Med. 83 175-180 (1953).” for “mg.”, “system. See, e.g., Bliss, C., The Statistics of Bioassay (Academic Press, New York, 1952); Hollister, C., Nucleic Acids Res. 16 1873-75 (1988).” for “system.”

[3] = Serum levels of the free alcohol after a single subcutaneous injection; type: in vivo, Sprague-Dawley rats; details: single subcutaneous injection 0.6 mg in aqueous carrier, 10-week observation period
Protocol: as §1

[4] = test system: castrate Sprague-Dawley rats; assay: Hershberger test, oral administration for seven days (ventral prostate weight); type: in vivo
Protocol: as §2, with “(oral)” for “(oral) or subcutaneous injection”, “mg. See, e.g., Hershberger, L. et al, Myotrophic Activity of 19-nortestosterone And Other Steroids Determined By Modified Levator And Muscle Method, Proc. Soc. Exptl. Biol. Med. 83 175-180 (1953).” for “mg.”, “See, e.g., Bliss, C., The Statistics of Bioassay (Academic Press, New York, 1952); Hollister, C., Nucleic Acids Res. 16 1873-75 (1988). […]” for “Ventral prostate weight was used as the endpoint because it is the sensitive organ to androgenic stimulation.”
Immature (about 21-day-old) Sprague-Dawley rats were orchidectomized under anesthesia, and randomly assignee to groups of ten animals for each dose level of the active undergoing testing. […] See, e.g., Hershberger, L. et al, Myotrophic Activity of 19-nortestosterone And Other Steroids Determined By Modified Levator And Muscle Method, Proc. Soc. […]

Which results are given for `CCCC[C@H]1CC[C@H](C(=O)O[C@H]2CC[C@H]3[C@H]4[C@H]([C@@H](C)C[C@]23C)[C@H]2CCC(=O)C=C2C[C@H]4C)CC1` (relative stereo) [CDB-4386A, 7α,11β-Dimethyl-17β-hydroxy-4-estren-3-one 17β-trans-4-n-butylcyclohexane carboxylate]?
Long-term androgenic activity (ventral prostate weight over time), in words [1]: most dramatic increase and maintenance of ventral prostate weight; also recorded: greatest AUC over the 10-week period; AUC of ventral prostate weight (FIG. 5) ([1]; ASV (aqueous suspending vehicle)): 1390; AUC of ventral prostate weight (FIG. 5) ([1]; S.O. (sesame oil)): 157; Androgenic Potency of Corresponding Alcohol ([2]; ventral prostate weight assay following subcutaneous administration, alcohol of G = 1.0 (assigned), value is for the free alcohol of the listed ester): 19.3; Serum levels of the free alcohol (7α,11β-dimethyl-19-nortestosterone) [3]: highest levels of the free alcohol

Which “Androgenic activity Potency Ratio, oral” value ([4]; oral gavage daily for 7 days in 10% EtOH/sesame oil, methyltestosterone oral standard = 1.0 (assigned), ventral prostate weight) does the source give for `CCCCCCCCCCC(=O)O[C@H]1CC[C@H]2[C@H]3[C@H]([C@@H](C)C[C@]12C)[C@H]1CCC(=O)C=C1C[C@H]3C` [7α,11β-dimethyl-17β-hydroxyestr-4-en-3-one 17-undecanoate] here?
The value was “about twice that of methyltestosterone”.

What does the source list for `CCCCCCCCCCC(=O)O[C@H]1CC[C@H]2[C@H]3[C@H]([C@@H](C)C[C@]12C)[C@H]1CCC(=O)C=C1C[C@H]3C` [CDB-4521A, 7α,11β-dimethyl-17β-hydroxyestr-4-en-3-one 17-undecanoate]?
Long-term androgenic activity (ventral prostate weight over time), in words [1]: most dramatic increase and maintenance of ventral prostate weight; AUC of ventral prostate weight relative to testosterone enanthate in sesame oil ([1]; single subcutaneous injection 0.6 mg, active in aqueous vehicle, 10 week period): about 3 times; AUC of ventral prostate weight (FIG. 15) ([1]; 10% EtOH/Sesame Oil, 10 week period): 620 mg-weeks; AUC of ventral prostate weight (FIG. 15) ([1]; Aqueous Suspending Vehicle, 10 week period): 1817 mg-weeks; Androgenic activity Potency Ratio, subcutaneous ([2]; subcutaneous daily for 7 days in 10% EtOH/sesame oil, testosterone subcutaneous standard = 1.0 (assigned), ventral prostate weight): 0.52; Androgenic activity Potency Ratio, oral, aqueous suspending vehicle ([4]; oral gavage daily for 7 days in aqueous suspending vehicle (ASV), methyltestosterone in same vehicle = 1.0 (assigned)): 0.95
